Assay results published in US8933071B2, “Dimethyl fasudil for inducing polyploidization of megakaryocytes and for treating blood and bone marrow diseases and disorders” (Northwestern University, priority 2008, dated 2015).
Entries after “also recorded” stand apart in the source; their conditions may differ.

Legend:
[1] = tested on: 6133/MPL megakaryocytic leukemia cells; assay: 6133/MPL transplant model of AMKL, oral gavage treatment; type: in vivo, C57B1/6 mice; conditions: for lifespan: from day 3
Experimental: FIG. 10 illustrates that DMF prevents AMKL in vivo. N=7 per group. […] transplant recipients were treated with two daily doses of vehicle, 33 mg/kg DMF, or 66 mg/kg DMF by oral gavage. Treatment with 33 or 66 mg/kg DMF led to statistically significant extensions in leukemia free survival (p=0.003 and 0.004 respectively).
To determine whether polyploidization-inducing agents can serve as new therapies for AMKL, DMF was assessed in an animal model for AMKL. To this end, an animal model of AMKL was developed by transplanting 6133/MPL megakaryocytic leukemia cells into sub-lethally irradiated recipient C57B1/6 mice. The parental 6133 cell line, which is dependent upon TPO for survival, was derived from a leukemic mouse that expressed the AMKL t(1:22) fusion protein OTT-MAL by knock-in gene targeting (35). 6133 cells were then transduced with a MPLW515L expressing retrovirus, and stable TPO-independent clones were isolated. […] The disease was characterized by massive infiltration of CD41^+ cells in the bone marrow and spleen.
After 3 days, the mice were treated with twice daily doses of DMF for 10 days. Seven mice were utilized per experimental condition. […] With 66 mg/kg nearly 50% of the mice remained disease free for at least 70 days. In contrast, all of mice fed only water (vehicle) died of leukemia by 20 days.
C57BL/6 mice (purchased from the Jackson Laboratory, Bar Harbor, Me.) were sub-lethally irradiated with 600 rads. Mice were then anesthetized by an IP injection of mixture of Ketamine (100 mg/kg) and xylazine (5 mg/kg) 2 hours after irradiation. C57/B16 mice were intravenously injected with 1×10^6 6133/MPL cells, which were labeled with green fluorescent protein (GFP). Two different doses of DMF (33 mg/kg or 66 mg/kg) or water were administered to mice by oral gavage twice daily (b.i.d.) starting on the 3rd day after transplantation. For pre-treatment model, 6133/MPL cells were incubated with 5 μM DMF or DMSO for 24 hours. Live cells treated with DMF or […] were separated with Ficoll and transplanted into sub-lethally irradiated mice. Development of disease was assessed with presence of GFP-positive cells in the peripheral blood by FACS and by monitoring the health and body weight of the animals. Mice were sacrificed based on a protocol that includes assessment of morbidity by >20% loss of weight, severe anemia, scruffy appearance, and/or severe lethargy.

[2] = tested on: human AMKL leukemic cells; assay: CFU-MK assay, bone marrow samples from patients with AMKL; type: cell-based; conditions: 5 μM, 14 days, AMKL patient bone marrow
Experimental: FIG. 8 illustrates that DMF blocks the growth of human AMKL leukemic cells. Mononuclear cells from patients with AMKL were cultured in methylcellulose in the presence of either DMSO or 5 μM of DMF.
Data with Patient Samples. Two lead compounds were tested on samples from both MPD (myeloproliferative disease) patients and AMKL (acute megakaryocytic leukemia) patients. […] Referring to FIG. 5, bone marrow mononuclear cells from a patient with ET were cultured with two doses of DMF for 10 days. […] Referring to FIG. 8, bone marrow samples from patients with AMKL were cultured in DMSO (control) or DMF (at 5 μM) for 14 days. Colonies were stained with anti-CD41 antibody and visualized by microcopy (not shown). Total numbers of CD41+ megakaryocyte colonies are shown.
AMKL Patient Specimens. Frozen bone marrow mononuclear cells of acute megakaryocytic leukemia (AMKL) were obtained from human patients with help from the Children's Oncology Group (COG). After thawing, cells were resuspended in IMDM media without serum. The cells were stained with 0.4% trypan blue solution for 5 minutes and live cells were counted. Live cells were assayed for leukemic potential in a CFU-MK assay (details below).
CFU-MK (Colony forming units-megakarvocvtes) assay. […] Slides were scored microscopically, and megakaryocyte colonies were defined as colonies with at least three megakaryocytes.

[3] = tested on: 6133/MPL megakaryocytic leukemia cells; assay: 6133/MPL transplant model of AMKL, pre-treatment of cells; type: in vivo, C57B1/6 mice
Description: FIG. 9 illustrates that DMF blocks the development of AMKL in vivo. a) Histology of spleens from control and 6133/MPL transplanted mice at 20 days. b) Survival analysis of the effect of DMF pre-treatment on AMKL development in recipient mice. p<0.0005 (Log rank test). N=6 mice (vehicle (DMSO) pre-treatment) or N=7 (DMF pre-treatment) per group.
To determine whether polyploidization-inducing agents can serve as new therapies for AMKL, we established an AMKL animal model. We developed an animal model of AMKL by transplanting 6133/MPL megakaryocytic leukemia cells (35) into sub-lethally irradiated recipient C57B1/6 mice. The parental 6133 cell line, which is dependent upon TPO for survival, was derived from a leukemic mouse that expressed the AMKL t(1:22) fusion protein OTT-MAL by knock-in gene targeting. 6133 cells were then transduced with a MPLW515L expressing retrovirus, and stable TPO-independent clones were isolated. We discovered that C57B1/6 mice transplanted with 1 million 6133/MPL cells developed a fulminant AMKL within 21 days. The disease was characterized by massive infiltration of CD41+ cells in the bone marrow and spleen. These mice will be utilized as animal models to quantify the effect of small molecule inducers of polyploidization on disease progression in vivo.
To determine whether polyploidization-inducing agents can serve as new therapies for AMKL, DMF was assessed in an animal model for AMKL. To this end, an animal model of AMKL was developed by transplanting 6133/MPL megakaryocytic leukemia cells into sub-lethally irradiated recipient C57B1/6 mice. The parental 6133 cell line, which is dependent upon TPO for survival, was derived from a leukemic mouse that expressed the AMKL t(1:22) fusion protein OTT-MAL by knock-in gene targeting (35). […]
C57BL/6 mice (purchased from the Jackson Laboratory, Bar Harbor, Me.) were sub-lethally irradiated with 600 rads. […] Development of disease was assessed with presence of GFP-positive cells in the peripheral blood by FACS and by monitoring the health and body weight of the animals. […]

dimethylfasudil [DMF]
leukemia free survival p ([1]; 33 mg/kg by oral gavage vs vehicle): 0.003
lifespan ([1]; 33 mg/kg twice daily oral gavage for 10 days): significant extensions in lifespan
leukemia free survival p ([1]; 66 mg/kg by oral gavage vs vehicle): 0.004
mice remaining disease free for at least 70 days ([1]; 66 mg/kg twice daily oral gavage): ~50%
lifespan ([1]; 66 mg/kg twice daily oral gavage for 10 days): significant extensions in lifespan
long-term survival of mice ([1]; feeding to mice): up to 50%
growth of human leukemia cells (CD41+ megakaryocyte colonies) [2]: potently blocked growth
development/progression of AMKL in recipient mice ([3]; 6133/MPL cells pre-treated with 5 μM for 24 hours before transplant): interfered with their ability to cause a tumor; also recorded: striking and significant delay in progression of AMKL
time mice healthy with no signs of disease ([3]; all mice implanted with cells pre-treated with 5 μM for 24 hours): at least 200 days
survival analysis p (Log rank test) ([3]; pre-treatment vs vehicle (DMSO) pre-treatment): < 0.0005
